Laboratory results reported in patent US8633005B2, “Isocyclomaltooligosaccharide(s), isocyclomaltooligosaccharide-forming enzyme, their preparation and uses” (Hayashibara Co., Ltd., priority 2004, dated 2014).

system: ICM-forming enzyme; test: Action on various saccharides (substrate specificity, TLC); type: biochemical, Bacillus circulans AM7; design: key: −: Not changed; +: Spot of substrate is slightly decreased and the formation of ICM are detected; ++: Spot of substrate is markedly decreased and the formation of ICM are detected; +++: Spot of substrate is virtually disappeared and the formation of ICM are detected; settings: substrate 2% (w/v), one unit/g-substrate enzyme, 40° C., pH 6.0, 24 hours
Procedure: Substrate specificity of ICM-forming enzyme was investigated using various saccharides as substrates. Substrate solutions were prepared by dissolving maltose, maltotriose, maltotetraose, maltopentaose, maltohexaose, maltoheptaose, neotrehalose, trehalose, kojibiose, nigerose, isomaltose, isomaltotriose, panose, isopanose, maltitol, maltotriitol, α-, β-, or γ-cyclodextrin, amylose, soluble starch, glycogen, pullulan or dextran in water. Each substrate solution was admixed with acetate buffer (pH 6.0) and CaCl2 to give final concentrations of 20 mM and 1 mM, respectively. […] Substrate concentration was set to 2% (w/v) and followed by the enzyme reaction at 40° C. and pH 6.0 for 24 hours. To examine the saccharides in each mixture before and after the reaction, saccharides were separated by silica gel thin-layer chromatography (hereinafter, simply abbreviated as “TLC”) using “KIESELGEL 60”, a TLC aluminum plate (10×20 cm) and a solvent (n-butanol/pyridine/water, volume ratio of 6:4:1) and two-times ascending method. The separated saccharides on the plate were detected by visualizing the spots with sulfate-methanol method. By the above TLC analyses, the enzymatic action and the degree of the reaction of ICM-forming enzyme on each substrate were confirmed.

Compound | Action
dextran | −
OC[C@H]1O[C@@H](O[C@H]2O[C@H](CO)[C@@H](O)[C@H](O)[C@H]2O)[C@H](O)[C@@H](O)[C@@H]1O [Neotrehalose, neotrehalose] | −
maltotriose | +
OC[C@H]1O[C@H](O[C@H]2[C@H](O)[C@@H](O)C(O)O[C@@H]2CO)[C@H](O)[C@@H](O)[C@@H]1O (mixture of isomers) [Maltose, maltose] | −
maltohexaose | +++
OC[C@H]1O[C@H](O[C@H]2O[C@H](CO)[C@@H](O)[C@H](O)[C@H]2O)[C@H](O)[C@@H](O)[C@@H]1O [Trehalose, trehalose] | −
OC[C@H]1O[C@H](O[C@H]2[C@H](O)[C@@H](CO)OC(O)[C@@H]2O)[C@H](O)[C@@H](O)[C@@H]1O (stereo partly shown) [Nigerose, nigerose] | −
soluble starch | ++
maltoheptaose | +++
OC[C@@H](O)[C@@H](O[C@H]1O[C@H](CO)[C@@H](O)[C@H](O)[C@H]1O)[C@H](O)[C@@H](O)CO [Maltitol, maltitol] | −
OC[C@@H](O)[C@@H](O[C@H]1O[C@H](CO)[C@@H](O[C@H]2O[C@H](CO)[C@@H](O)[C@H](O)[C@H]2O)[C@H](O)[C@H]1O)[C@H](O)[C@@H](O)CO [Maltotriitol, maltotriitol] | −
pullulan | −
OC[C@H]1O[C@H](OC[C@H]2OC(O)[C@H](O)[C@@H](O)[C@@H]2O)[C@H](O)[C@@H](O)[C@@H]1O (stereo partly shown) [Isomaltose, isomaltose] | −
OC[C@H]1O[C@H](O[C@H]2[C@H](O)[C@@H](O)[C@@H](OC[C@H]3OC(O)[C@H](O)[C@@H](O)[C@@H]3O)O[C@@H]2CO)[C@H](O)[C@@H](O)[C@@H]1O (stereo partly shown) [Isopanose, isopanose] | −
glycogen | +
OC[C@H]1O[C@H](O[C@H]2C(O)O[C@H](CO)[C@@H](O)[C@@H]2O)[C@H](O)[C@@H](O)[C@@H]1O (stereo partly shown) [Kojibiose, kojibiose] | −
maltopentaose | +++
OC[C@H]1O[C@H](OC[C@H]2O[C@H](OC[C@H]3OC(O)[C@H](O)[C@@H](O)[C@@H]3O)[C@H](O)[C@@H](O)[C@@H]2O)[C@H](O)[C@@H](O)[C@@H]1O (stereo partly shown) [Isomaltotriose, isomaltotriose] | −
OC[C@H]1O[C@H](O[C@H]2[C@H](O)[C@@H](O)[C@@H](O[C@H]3[C@H](O)[C@@H](O)[C@@H](O[C@H]4[C@H](O)[C@@H](O)C(O)O[C@@H]4CO)O[C@@H]3CO)O[C@@H]2CO)[C@H](O)[C@@H](O)[C@@H]1O (stereo partly shown) [Maltotetraose, maltotetraose] | ++
OC[C@H]1O[C@H](OC[C@H]2O[C@H](O[C@H]3[C@H](O)[C@@H](O)C(O)O[C@@H]3CO)[C@H](O)[C@@H](O)[C@@H]2O)[C@H](O)[C@@H](O)[C@@H]1O (stereo partly shown) [Panose, panose] | −
amylose | +++

system: ICM-forming enzyme; test: Effects of metal ions on the enzyme activity; type: biochemical, Bacillus circulans AM7; settings: 1 mM metal salt

Compound | Inhibition of ICM-forming enzyme activity
O=C(O)CN(CCN(CC(=O)O)CC(=O)O)CC(=O)O [EDTA] | inhibited slightly
[Cl][Hg][Cl] [HgCl2] | 45%
[Cl][Fe]([Cl])[Cl] [FeCl3] | about 20%

same assay, conditions: 1 mM metal salt; None = 100

Compound | Relative activity
O=C(O)CN(CCN(CC(=O)O)CC(=O)O)CC(=O)O [EDTA] | 86%
[Ba+2].[Cl-].[Cl-] [BaCl2] | 99%
[Cl][Ni][Cl] [NiCl2] | 105%
[Cl][Mn][Cl] [MnCl2] | 108%
[Cl][Fe][Cl] [FeCl2] | 94%
[Cl][Al]([Cl])[Cl] [AlCl3] | 106%
[Cl-].[Cl-].[Zn+2] [ZnCl2] | 113%
[Cl][Pb][Cl] [PbCl2] | 130%
[Cl][Hg][Cl] [HgCl2] | 55%
[Ca+2].[Cl-].[Cl-] [CaCl2] | 105%
[Cl-].[Cl-].[Sr+2] [SrCl2] | 100%
[Cl-].[Cl-].[Mg+2] [MgCl2] | 110%
[Cl][Fe]([Cl])[Cl] [FeCl3] | 82%
